Measured values published in patent US8618104B2, “Salts of methyl (R)-7-[3-amino-4-(2,4,5-trifluoro-phenyl)-butyryl]-3-trifluoromethyl-5,6,7,8-tetrahydro-imidazo[1,5-A]pyrazine-1-carboxylate” (Jiangsu Hengrui Medicine Co., Ltd., priority 2009, dated 2013).

Key:
[1] = Stability of compound A and its salts, content by HPLC; type: physicochemical; settings: for Content by HPLC after storage: raw material purity 98.6%
Protocol: (1) Content Determination Method
With a Octadecyl silane chemically bonded silica as bulking agent and 0.1% aqueous solution of ammonia-acetonitrile (65:35) as mobile phase, eluted in gradient mode at detection wavelength of 230 nm. Appropriate amount of test sample and reference solution was taken, then water was added to dissolve which to form solutions every 1 ml containing 0.2 mg of them respectively. The test sample solution and reference solution 10 μl was respectively taken and injected into the liquid chromatograph. chromatograph chart was recorded, and calculated by peak area according to the external standard method.
The stability of different types of the pharmaceutically acceptable salts of compound A under different conditions

[2] = in vivo; settings: male, rat, po, 6 mg/kg
Protocol: (§1) 16 healthy male rats weighing 200˜220 g were randomly divided into four groups. […] The plasma was separated, preserved for test under −20° C. The blood concentration was tested by HPLC-Tandem Mass Spectrum.

[3] = tested on: genetic obese Wistar rats with diabetes; assay: Effects of the 6 salts in genetic obese Wistar rats with diabetes (14 days); type: in vivo, rat; settings: for Hemoglobin (hemoglobin A1) / Plasma glucose: male Wistar fat rats, 10 mg/kg/day p.o. in feed, mean ± SD, n=5-6
Protocol: 14 to 19 week-old male Wistar fat rats were divided into five groups, each to group 5 to 6, and they were respectively administered the 6 salts of compound A (each 10 mg/kg weight/day, p.o.) which were mixed in commercial feed at a ratio of […] for 14 days. The blood was taken from tail vein, a commercial kits (NC-ROPET, Nippon Chemiphar CO.) was used to measure plasma glucose and hemoglobin A1 by enzymatic is method. The results were expressed as mean value of each group (n=5-6)±standard deviation and analyzed by Dunnett's test which were shown in table 2. A significance level of 1% was used.

[4] = tested on: genetic obese Wistar rats with diabetes; assay: Oral glucose tolerance test in genetic obese Wistar rats with diabetes; type: in vivo, rat; settings: for Plasma glucose: 30 mg/kg/day p.o. for 7 days, mean ± SD
Protocol: 13˜14 week-old male fat rats were divided into five groups, each group five. They were respectively administered the 6 salts of compound A (each 30 mg/kg/day, p.o.) for 7 days. After overnight fasting, oral glucose tolerance tests were conducted immidiately (2 g glucose/kg/5 ml, p.o.). Before and 120 and 240 mins after the glucose tolerance test, blood was collected from the tail vein, and plasma glucose was analyzed by enzymatic method (Encore Chemical System; Baker). Results were expressed as mean value of each group (n=5-6)±standard deviation analyzed by Dunnett's test which were shown in table 3.

[5] = Absorption tests in rats of different salts (pharmacokinetics); settings: rat, 6.0 mg/kg (by base) by gavage; for t1/2: 0.5% CMC-Na suspension
Protocol: as §1

[6] = 0 min (before glucose load 2 g/kg p.o.)
[7] = 120 min after glucose load 2 g/kg p.o.
[8] = 240 min after glucose load 2 g/kg p.o.

Row | Structure (SMILES) | Content by HPLC after storage ([1]; 40° C., 10 days) [%] | Content by HPLC after storage ([1]; 60° C., 10 days) [%] | Content by HPLC after storage ([1]; Light, 10 days) [%] | Content by HPLC after storage ([1]; RH60%, 25° C., nine months) [%] | Content by HPLC after storage ([1]; RH75%, 40° C., six months) [%] | Hemoglobin (hemoglobin A1) [3] | Plasma glucose [3] | Plasma glucose [4, 6] [mg/dL] | Plasma glucose [4, 7] [mg/dL] | Plasma glucose [4, 8] [mg/dL] | AUC0-t [5] [ng·h/mL] | AUC0-∞ [5] [ng·h/mL] | CL/F [5] [mL/min/kg] | Cmax [5] [ng/mL] | MRT [5] [h] | Tmax [5] [h] | t1/2 [5] [h] | also measured
1 | COC(=O)c1nc(C(F)(F)F)n2c1CN(C(=O)C[C@H](N)Cc1cc(F)c(F)cc1F)CC2 [Compound A, (R)-7-[3-amino-4-(2,4,5-trifluoro-phenyl)-butyryl]-3-trifluoromethyl-5,6,7,8-tetrahydro-imidazo[1,5-a]pyrazine-1-carboxylic acid methyl ester] | 95.2 | 95.7 | 95.2 | 93.3 | 92.2 | – | – | – | – | – | – | – | – | – | – | – | – | AUC0-t [2]: 409 ng·h/mL; AUC(0-inf) [2]: 425 ng·h/mL; CL/F [2]: 545 mL/min/kg; Cmax [2]: 242 ng/mL; MRT [2]: 1.96 h; Tmax [2]: 0.5 h; half-life [2]: 1.54 h
2 | COC(=O)c1nc(C(F)(F)F)n2c1CN(C(=O)C[C@H](N)Cc1cc(F)c(F)cc1F)CC2.Cl [Hydrochloride of compound A, hydrochloride of (R)-7-[3-amino-4-(2,4,5-trifluoro-phenyl)-butyryl]-3-trifluoromethyl-5,6,7,8-tetrahydro-imidazo[1,5-a]pyrazine-1-carboxylic acid methyl ester] | 98.7 | 98.2 | 98.1 | 97.5 | 97.7 | 4.5 ± 0.5 | 165 ± 13 | 109 ± 5 | 116 ± 7 | 106 ± 3 | 317 | 319 | 348 | 148 | 1.86 | 0.63 | 1.07 | Stability test result in words ([1]; conclusion over all storage conditions): most satisfying; Effect on blood glucose and hemoglobin in words ([3]; Wistar fat rats, 10 mg/kg/day): reduce the concentration of blood glucose and hemoglobin obviously; Effect on increase of blood sugar after the glucose tolerance test in words ([4]; 30 mg/kg/day p.o., 7 days): significantly inhibited the increase of blood sugar
3 | COC(=O)c1nc(C(F)(F)F)n2c1CN(C(=O)CC(N)Cc1cc(F)c(F)cc1F)CC2.CS(=O)(=O)O (stereo not shown) [Mesylate of compound A] | 96.7 | 96.5 | 97.6 | 95.6 | 95.4 | 5.8 ± 0.4 | 287 ± 34 | 108 ± 8 | 115 ± 9 | 92 ± 7 | 274 | 275 | 397 | 133 | 1.61 | 0.88 | 0.87 | –
